# Results published in patent US20250339425A1 (Northeastern University, priority 2024, published 2025).
# Where two headings read alike, the source gives them in different places.
# Key:
# human α7 nAChR = human α7 nAChR (Homo sapiens, UniProt P36544)
# [1] = test system: BzATP-induced release of IL-1β by human monocytic THP-1 cells; assay: BzATP-induced release of IL-1β by LPS-primed monocytic THP-1 cells (ELISA); details: for inhibition of BzATP-induced release of IL-1β: LPS-primed THP-1 cells, ACh at 10 μM; for antagonism of the effect of ACh on IL-1β release: all concentrations investigated (1 nM to 100 μM), ACh 10 μM; for inhibitory effect on IL-1β release at the lowest concentration tested: 1 nM
# Procedure: Monocytic THP-1 cells were primed with lipopolysaccharide (LPS; 1 μg/ml, 5 hours). Thereafter, the P2X7 receptor agonist BzATP (100 μM) was added for another 40 minutes to trigger IL-1β release. […] The IL-1β concentrations obtained after stimulation with BzATP+solvent were set to 100% and all other values were calculated accordingly. Data are presented as individual data points, the bar represents the median, and whiskers encompass the 25th to 75th percentile. *p≤0.05, different from LPS-primed cells stimulated with BzATP alone. Friedman test followed by the Wilcoxon signed-rank test.
# The new compounds were tested for the ability to down-regulate the ATP-mediated release of 10 IL-1β by human monocytic THP-1 cells.
# Monocytic THP-1 cells were primed with lipopolysaccharide (LPS, 1 μg/ml) for 5 hours and further stimulated them with BzATP (100 μg/ml) for 40 minutes to induce the maturation and release of IL-1β.
# The monocytic THP-1 cell line was obtained from the German Collection of Microorganisms and Cell Cultures (Braunschweig, Germany). […] Thereafter, 0.5×10^6 cells/0.5 ml and per well were seeded in 48-well plates (Greiner Bio-One, Frickenhausen, Germany) as described previously.^27 The cells were primed with LPS (1 μg/ml; E. coli O26:B6, Merck, Darmstadt, Germany, Cat #L2654) for 5 h under 5% CO2 atmosphere at 37° C. […] After the treatment, cells were spun down (500 g, 8 min, 4° C.) to collect the cell-free supernatants, that were stored at −20° C. for later measurements of IL-1β and lactate dehydrogenase (LDH) activity.
# To measure IL-1β concentrations in the cell-free supernatants the Human IL-1 beta/IL-1F2 DuoSet enzyme-linked immunosorbent assay (ELISA) from R&D Systems (Cat #DY201) was used according to the supplier's instructions. In parallel, LDH activity was measured to test for cell viability at the end of the cell culture experiments, using the CytoTox 96® Non-Radioactive Cytotoxicity Assay (Promega, Madison, WI, United States; Cat #G1780) according to the supplier's instructions.
# Results obtained in the BzATP-induced IL-1β release experiments were analyzed using SPSS (Version 27, IBM, Armonk, NY, United States). The data were analyzed first by the Friedman test followed by the Wilcoxon signed-rank test. […] The number (n) of individual experiments is indicated in the Figures and refers to independent experiments, which were performed on different days with different cell passages.
# α9 nAChR [2] = molecular target: T1, α9 nAChR (Homo sapiens, UniProt Q9UGM1); details: for EC50: read-out: α9 EC50
# [3] = In vitro metabolic stability in rat hepatocytes
# [4] = In vitro metabolic stability in pooled human liver microsomes
# α9α10 nAChR = molecular target: T2, α9α10 nAChR (Homo sapiens, UniProt Q9GZZ6+Q9UGM1); assay: Inhibition of ACh-evoked currents, co-application with 60 μM ACh, oocytes expressing α9α10; assay type: cell-based; details: co-applied with 60 μM ACh; unit not printed for these values (α9 values in μM); read-out: IC50 as antagonist on α9α10
# T2 construct: expressed in transfected cells; host or cells: Xenopus laevis oocytes injected with in vitro transcribed RNA
# Procedure: (§1) FIGS. 13A-13B show inhibition concentration-response studies for chiral diMPP compounds (2R)PA-diMPP (8) and (2S)PA-diMPP (9), identified as α9 and α9α10 antagonists.
# (§2) Experimental responses were measured relative to the preceding ACh control response. […] The transition from agonist to antagonist behavior in α7 to α9* nAChRs indicates a slightly bigger dialkyl tail on nitrogen, or perhaps more importantly, the asymmetry of the groups and potential for multiple rotamers is important for α9 agonism, while chirality is more important for α7 selectivity.
# (§3) Two-electrode voltage-clamp experiments were conducted using OpusXpress 6000A (Molecular Devices, Union City CA, USA). Both the voltage and current electrodes were filled with 3 M KCl. Oocytes were voltage-clamped at −60 mV at room temperature. The oocytes were perfused with Ringer's solution (115 mM NaCl, 2.5 mM KCl, 1.8 mM CaCl2), 10 mM HEPES, 1 μM atropine, pH 7.2) at 2 ml/min. […] Drug applications were 12 s in duration followed by 181 s washout periods.
# α9 nAChR [5] = molecular target: T1, α9 nAChR; assay: Inhibition of ACh-evoked currents, co-application with 60 μM ACh, oocytes expressing α9; assay type: cell-based; set-up: expressed in transfected cells; host or cells: Xenopus laevis oocytes injected with in vitro transcribed RNA; details: co-applied with 60 μM ACh; read-out: IC50 as antagonist on α9
# Procedure: as §1, §2, §3
# α9 nAChR [6] = molecular target: T1, α9 nAChR; assay: cell-based
# in vitro = details: BALB/c, mouse, pooled mouse plasma
# [7] = read-out: α7 EC50, Table 2, unit inferred
# [8] = read-out: α7 EC50, Table 4, unit inferred
# [9] = Table 4, chiral EMPPs and diMPPs
# [10] = Table 1, net charge, relative to ACh maximum
# [11] = read-out: α7 EC50, Table 1, unit inferred
# [12] = Table 1, peak current, relative to ACh maximum
# [13] = Table 1, unit not given (0.23 as 230 nM)
# T1 sequence (Q9UGM1 26-479 limits assumed): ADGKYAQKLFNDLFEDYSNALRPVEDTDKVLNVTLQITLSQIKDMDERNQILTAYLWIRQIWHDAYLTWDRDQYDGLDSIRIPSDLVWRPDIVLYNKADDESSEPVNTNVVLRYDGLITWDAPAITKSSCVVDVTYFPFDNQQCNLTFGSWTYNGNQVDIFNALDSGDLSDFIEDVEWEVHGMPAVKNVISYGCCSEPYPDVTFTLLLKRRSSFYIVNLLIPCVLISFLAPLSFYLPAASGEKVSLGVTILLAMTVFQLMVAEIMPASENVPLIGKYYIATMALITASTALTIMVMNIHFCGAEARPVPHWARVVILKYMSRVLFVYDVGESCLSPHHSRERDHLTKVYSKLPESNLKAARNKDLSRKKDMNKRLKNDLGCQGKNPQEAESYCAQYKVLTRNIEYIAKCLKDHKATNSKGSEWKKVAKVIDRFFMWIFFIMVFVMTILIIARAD
# human α7 nAChR, sequence (P36544 23-502): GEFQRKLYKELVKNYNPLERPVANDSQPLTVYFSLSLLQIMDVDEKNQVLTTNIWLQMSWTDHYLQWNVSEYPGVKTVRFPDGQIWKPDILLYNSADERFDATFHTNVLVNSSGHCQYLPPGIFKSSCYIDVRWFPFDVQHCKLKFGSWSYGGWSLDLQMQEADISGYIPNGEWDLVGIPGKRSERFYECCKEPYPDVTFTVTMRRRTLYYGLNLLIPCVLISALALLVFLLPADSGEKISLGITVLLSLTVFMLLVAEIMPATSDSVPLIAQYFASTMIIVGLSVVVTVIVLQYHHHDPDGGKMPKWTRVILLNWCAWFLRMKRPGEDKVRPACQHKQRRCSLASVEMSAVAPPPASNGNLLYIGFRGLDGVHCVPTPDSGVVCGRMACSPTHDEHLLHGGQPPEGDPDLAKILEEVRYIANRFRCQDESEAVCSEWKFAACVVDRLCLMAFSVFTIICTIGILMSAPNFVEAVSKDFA
# T2 sequence (Q9UGM1 26-479 limits assumed): as the sequence (Q9UGM1 26-479 limits assumed) above
# T2 sequence (Q9GZZ6 25-450): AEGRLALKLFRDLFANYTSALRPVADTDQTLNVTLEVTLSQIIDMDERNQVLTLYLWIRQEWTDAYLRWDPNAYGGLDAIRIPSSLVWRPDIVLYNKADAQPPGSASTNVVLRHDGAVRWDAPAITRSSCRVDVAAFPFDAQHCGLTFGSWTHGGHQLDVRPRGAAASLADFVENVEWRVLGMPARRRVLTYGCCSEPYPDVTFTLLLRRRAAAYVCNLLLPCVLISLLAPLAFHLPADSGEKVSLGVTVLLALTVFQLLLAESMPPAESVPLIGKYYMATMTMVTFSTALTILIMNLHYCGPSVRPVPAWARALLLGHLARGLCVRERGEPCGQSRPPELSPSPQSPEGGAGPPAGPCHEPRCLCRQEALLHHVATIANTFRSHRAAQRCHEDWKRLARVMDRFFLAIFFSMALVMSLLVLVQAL
smiles,measurement,setting,value
CC[N+]1(C)CCN(c2ccc(C(=O)Nc3cccc(C)n3)cc2)C[C@@H]1C (stereo partly drawn) [IV-b],α7 Imax,"human α7 nAChR; Table 2, chiral compounds",0.238 ± 0.004
same,α7 Imax,human α7 nAChR; Table 4,0.24 ± 0.004
same,EC50,human α7 nAChR; [7],7.1 ± 0.49 µM
same,EC50,human α7 nAChR; [8],7.1 ± 0.49 µM
same,inhibition of BzATP-induced release of IL-1β,[1],significantly inhibited
same,receptor selectivity α9 vs α7,α9 nAChR [2],selective towards α9
same,α9 Imax,"α9 nAChR [2]; Table 2, chiral compounds",0.670 ± 0.02
same,α9 Imax,α9 nAChR [2]; [9],0.670 ± 0.02
same,EC50,"α9 nAChR [2]; Table 2, unit inferred",2.09 ± 0.63 µM
same,EC50,"α9 nAChR [2]; Table 4, unit inferred",2.09 ± 0.63 µM
CC[N+]1(C)CCN(c2ccc(C#N)cc2)CC1C [(2S)r/s-pCN-EMPP],EC50,human α7 nAChR,26.6 ± 9.6 µM
same,inhibition of BzATP-induced release of IL-1β,[1],significantly inhibited
"CC[N+]1(C)CCN(c2ccc(C(=O)Nc3cccc(C)n3)cc2)CC1 [Compound 3f, reference compound]",clearance,[3],low clearance
same,α7 Imax,human α7 nAChR; [10],0.40 ± 0.02
same,α7 Imax,human α7 nAChR; Table 4,0.40 ± 0.02
same,EC50,human α7 nAChR; [11],6.1 ± 1.1 µM
same,EC50,human α7 nAChR; [8],6.1 ± 1.1 µM
same,clearance,[4],low clearance
same,plasma protein binding,Plasma protein binding,32%
same,α9 Imax,α9 nAChR [2]; [12],1.19 ± 0.03
same,α9 Imax,α9 nAChR [2]; [9],1.19 ± 0.03
same,EC50,α9 nAChR [2]; [13],0.51 ± 0.07 µM
same,EC50,"α9 nAChR [2]; Table 4, unit inferred",0.51 ± 0.07 µM
Cc1cccc(NC(=O)c2ccc(N3CC[N+](C)(C)[C@H](C)C3)cc2)n1 [IV-f],α7 Imax,"human α7 nAChR; Table 2, chiral compounds",0.426 ± 0.021
same,α7 Imax,human α7 nAChR; Table 4,0.426 ± 0.02
same,EC50,human α7 nAChR; [7],3.06 ± 0.38 µM
same,EC50,human α7 nAChR; [8],3.06 ± 0.38 µM
same,inhibition of BzATP-induced release of IL-1β,[1],significantly inhibited
same,antagonism of the effect of ACh on IL-1β release,[1],significantly antagonized the effect of ACh
same,IC50,α9α10 nAChR,0.406 ± 0.15 µM
same,IC50,α9 nAChR [5],0.21 ± 0.06 µM
same,receptor selectivity α9 vs α7,α9 nAChR [2],selective for α7
same,type of activity at α9 / α9* nAChR,α9 nAChR [2],antagonists of the alpha 9 nicotinic acetylcholine receptor
same,α9 Imax,"α9 nAChR [2]; Table 2, chiral compounds",0.0065 ± 0.72
same,α9 Imax,α9 nAChR [2]; [9],0.0065 ± 0.72
same,type of activity at α9 / α9* nAChR,α9 nAChR [2]; listed as (2R)PA-diMPP,lost nearly all agonist activity for α9* receptors
CC[N+]1(C)CCN(c2ccc(NC(=O)c3ccc(C)cn3)cc2)CC1 [V-h],EC50,human α7 nAChR,315 µM
same,α7 Imax,human α7 nAChR; Table 3,0.266 ± 0.33
same,EC50,α9 nAChR [6],0.44 ± 0.14 µM
same,α9 Imax,"α9 nAChR [2]; Table 3, reverse amide GATs",1.00 ± 0.08
CCN(CC)CCOC(=O)c1ccc(N)cc1 [procaine],half-life at 1 μM,in vitro,< 5 min
Cc1cccc(NC(=O)c2ccc(N3CC[N+](C)(C)[C@@H](C)C3)cc2)n1 [Compound IV-e],α7 Imax,"human α7 nAChR; Table 2, chiral compounds",0.397 ± 0.011
same,α7 Imax,human α7 nAChR; Table 4,0.397 ± 0.01
same,EC50,human α7 nAChR; [7],3.49 ± 0.35 µM
same,EC50,human α7 nAChR; [8],3.49 ± 0.35 µM
same,inhibition of BzATP-induced release of IL-1β,[1],significantly inhibited
same,antagonism of the effect of ACh on IL-1β release,[1],significantly antagonized the effect of ACh
same,IC50,α9α10 nAChR,4.33 ± 1.14 µM
same,IC50,α9 nAChR [5],0.24 ± 0.11 µM
same,receptor selectivity α9 vs α7,α9 nAChR [2],selective for α7
same,type of activity at α9 / α9* nAChR,α9 nAChR [2],antagonists of the alpha 9 nicotinic acetylcholine receptor
same,α9 Imax,"α9 nAChR [2]; Table 2, chiral compounds",0.04 ± 0.005
same,α9 Imax,α9 nAChR [2]; [9],0.04 ± 0.005
same,type of activity at α9 / α9* nAChR,α9 nAChR [2]; listed as (2S)PA-diMPP,lost nearly all agonist activity for α9* receptors
same,EC50,"α9 nAChR [2]; Table 2, unit inferred",0.8 ± 0.6 µM
same,EC50,"α9 nAChR [2]; Table 4, unit inferred",0.8 ± 0.6 µM
CC[N+]1(C)CCN(c2ccc(NC(=O)c3cccc(Br)n3)cc2)CC1 [V-a],EC50,human α7 nAChR,7.1 ± 3.17 µM
same,α7 Imax,human α7 nAChR; Table 3,0.094 ± 0.012
same,EC50,α9 nAChR [6],0.44 ± 0.108 µM
same,α9 Imax,"α9 nAChR [2]; Table 3, reverse amide GATs",0.936 ± 0.04
CC[N+]1(C)CCN(c2ccc(C#N)cc2)C[C@H]1C (stereo partly drawn) [(2R)r/s-pCN-EMPP],inhibitory effect on IL-1β release at the lowest concentration tested,[1],moderate but significant inhibitory effects
same,inhibition of BzATP-induced release of IL-1β,[1],significantly inhibited
CC[N+]1(C)CCN(c2ccc(NC(=O)c3ncc(C(F)(F)F)cc3Cl)cc2)CC1 [V-i],α7 Imax,human α7 nAChR; Table 3,0.001 ± 0.14
same,EC50,α9 nAChR [6],0.81 ± 0.38 µM
same,α9 Imax,"α9 nAChR [2]; Table 3, reverse amide GATs",1.23 ± 0.13
CC[N+]1(C)CCN(c2ccc(NC(=O)c3cccc(Cl)n3)cc2)CC1 [V-b],EC50,human α7 nAChR,14 µM
same,α7 Imax,human α7 nAChR; Table 3,0.10 ± 0.028
same,EC50,α9 nAChR [6],0.56 ± 0.065 µM
same,α9 Imax,"α9 nAChR [2]; Table 3, reverse amide GATs",1.00 ± 0.18
"CC[N+]1(C)CCN(c2ccc(C(=O)Nc3cccc(C)n3)cc2)C[C@H]1C (stereo partly drawn) [Compound IV-a, (2R)-1-ethyl-1,2-dimethyl-4-(4-((6-methylpyridin-2-yl)carbamoyl)phenyl)piperazin-1-ium iodide]",α7 Imax,"human α7 nAChR; Table 2, chiral compounds",0.548 ± 0.02
same,α7 Imax,human α7 nAChR; Table 4,0.55 ± 0.02
same,EC50,human α7 nAChR; [7],7.16 ± 1.29 µM
same,EC50,human α7 nAChR; [8],7.16 µM
same,inhibitory effect on IL-1β release at the lowest concentration tested,[1],moderate but significant inhibitory effects
same,inhibition of BzATP-induced release of IL-1β,[1],significantly inhibited
same,receptor selectivity α9 vs α7,α9 nAChR [2],selective towards α7
same,α9 Imax,"α9 nAChR [2]; Table 2, chiral compounds",0.0521 ± 0.013
same,α9 Imax,α9 nAChR [2]; [9],0.052 ± 0.013
same,EC50,"α9 nAChR [2]; Table 2, unit inferred",1.93 ± 2.25 µM
same,EC50,"α9 nAChR [2]; Table 4, unit inferred",1.93 ± 2.25 µM
"CC[N+]1(C)CCN(c2ccc(NC(C)=O)cc2)CC1 [Compound III, 4-(4-Acetamidophenyl)-1-ethyl-1-methylpiperazin-1-ium Iodide]",EC50,α9 nAChR [6],0.23 µM
same,α9 Imax,α9 nAChR [2]; [12],0.75 ± 0.04
same,EC50,α9 nAChR [2]; [13],2.27 ± 0.49 µM
same,increase in potency relative to ACh,α9 nAChR [2]; α9,113 fold
"CC[N+]1(CC)CCN(c2ccc(NC(=O)c3cccc(C)n3)cc2)CC1.[I-] [Compound I, 1,1-Diethyl-4-(4-(6-methylpicolinamido)phenyl)piperazin-1-ium iodide]",α7 Imax,human α7 nAChR; [10],0.14 ± 0.004
same,α7 Imax,human α7 nAChR; Table 3,0.41 ± 0.025
same,EC50,human α7 nAChR; [11],4.68 ± 0.54 µM
same,EC50,"human α7 nAChR; read-out: α7 EC50, Table 3, unit inferred",78.3 ± 11.3 µM
same,α9 Imax,α9 nAChR [2]; [12],1.24 ± 0.04
same,α9 Imax,"α9 nAChR [2]; Table 3, reverse amide GATs",1.01 ± 0.03
same,EC50,α9 nAChR [2]; [13],1.63 ± 0.2 µM
same,EC50,"α9 nAChR [2]; Table 3, unit not printed (text gives 0.086 as 86 nM)",0.23 ± 0.034 µM
CC[N+]1(C)CCN(c2ccc(NC(=O)c3ccc4ccccc4n3)cc2)CC1 [V-f],EC50,human α7 nAChR,2.03 ± 0.54 µM
same,α7 Imax,human α7 nAChR; Table 3,0.124 ± 0.009
same,EC50,α9 nAChR [6],0.157 µM
same,α9 Imax,"α9 nAChR [2]; Table 3, reverse amide GATs",1.008 ± 0.048
CC[N+]1(C)CCN(c2ccc(NC(=O)c3cccc(F)n3)cc2)CC1 [V-c],α7 Imax,human α7 nAChR; Table 3,0.000 ± 0.000
same,EC50,α9 nAChR [6],0.81 ± 0.38 µM
same,α9 Imax,"α9 nAChR [2]; Table 3, reverse amide GATs",1.2 ± 0.13
